Test results published in patent US7846434B2, “Materials and methods for improved immunoglycoproteins” (Trubion Pharmaceuticals, Inc., priority 2006, dated 2010).
Where “and” joins values, the source holds several entries; their conditions need not be identical. Identical values can stand only once.

Key:
[1] = test system: human CD16 (low affinity polymorphism), FcγRIIIa; assay: Simultaneous binding of TRU-016 to CD37 (Daudi cells) and CD16:MuIgGFc fusion
Experimental: TRU-016 produced as described in Example 8 was tested in the following assay, which simultaneously evaluates the ability of the TRU-016 binding domain to bind to a CD37 expressing target cell and the ability of the Fc portion of the TRU-016 SMIP to bind a fusion protein of human CD16 and murine IgG Fc.
The target cell utilized is the Daudi (ATCC CRL-213) cell line. Daudi cells are a human B-lymphoblastoid cell line derived from a Burkitt's lymphoma and express high levels of CD37. The custom soluble CD16:MuIgGFc fusion protein is human CD16 (low affinity polymorphism) linked to a murine IgG Fc.
The appropriate number of Daudi cells (350,000/well times the number of wells) is aliquoted and centrifuged at 250×g for 5 minutes at 15° C. The supernatant is removed. One percent cold paraformaldehyde is prepared by diluting the 4% stock from USB (USB US19943) 1:4 with FACS Buffer. FACS Buffer is prepared by adding 2% FBS (Gibco) to Dulbecco's PBS (Invitrogen) (v/v) and sterile filtering with a 0.22 μm filter. FACS Buffer is stored and used at 4° C. […]
Each sample's bound fluorescence is measured on a BD FACSCalibur flow cytometry system and analyzed with Cell Quest Pro software (Becton Dickinson, ver 5.2). The GeoMean fluorescence intensity for each sample is plotted relative to the TRU-016 concentration. […]

[2] = test system: DG44 CHO cells transfected with TRU-016; assay: Effect of castanospermine on DG44 CHO TRU-016 production, 3 L bioreactors; assay type: cell-based, Chinese hamster; settings: for TRU-016 Produced as a % of Control: control average 427.7 ug/mL; for Viability at Harvest (%): harvest day 8
Experimental: Prior to growth in bioreactors, DG44 CHO cells transfected with TRU-016 were grown in the absence of castanospermine in vented shake flasks as described in Example 8.
For the bioreactor run, 3 L Applikon bioreactors were used. Growth media for cells was as described in Example 8 except that there was no methotrexate present. Starting culture volume for each bioreactor was 1700 mLs with a starting density of 3.5×10^5 cells/mL. A total of eight bioreactors were run in pairs with CS at 0 μM, 300 μM, 350 μM and 400 μM final concentration (one of the 400 μM CS bioreactors was lost to contamination on day 2 of culture). Castanospermine was added at the initiation of culture in the bioreactors with no further addition during the culture period. Other culture conditions included a temperature set point of 37° C., pH set point of 6.9 and dissolved O2 set point of 50%. Bioreactors were run in a fed-batch mode with L-glutamine and glucose added on an as needed basis. Soy hydrolysate (CHO Feed Bioreactor Supplement—C1615—Sigma) was added at 1% of starting culture volume on days 2, 4 and 6. Bioreactors were sampled daily for viable cell density, percent viable cells, media chemistries and osmolality. All cultures were harvested on day 8 when overall cell viability ranged from 39-50%.

In the case of `O[C@H]1[C@H](O)[C@@H](O)CN2CC[C@H](O)[C@H]12` [castanospermine], the “maximal improvement in TRU-016 glycovariant binding to CD16” value ([1]; CHO-K1 produced, CS concentrations of 100 μM or greater) is reported as “approximately 7 fold”, the “binding to CD16 (GeoMean fluorescence, D-parameter) of DG44 CHO produced TRU-016” value ([1]; relative to concentration of CS up to 400 μM, then levels off) is reported as “dose-dependent binding response” and the “TRU-016 Produced as a % of Control” value ([2]; CS 300 μM, listed as CS) is reported as 68.0% and 75.1%. For the same compound, the “Viability at Harvest (%)” value ([2]; CS 300 μM, listed as CS) was 48.8% and 42.4%, the “ICA (10^6 cells * days/mL)” value ([2]; CS 300 μM, listed as CS) was 47.5 10^6 cells * days/mL and 46.2 10^6 cells * days/mL and the “Specific Productivity (pg/cell/day)” value ([2]; CS 300 μM, listed as CS) was 6.12 pg/cell/day and 6.96 pg/cell/day. For the same compound, the “TRU-016 Produced” value ([2]; CS 300 μM, listed as CS) was 291.0 µg/mL and 321.3 µg/mL, the “TRU-016 Produced as a % of Control” value ([2]; CS 350 μM, listed as CS) was 73.6% and 74.4% and the “Viability at Harvest (%)” value ([2]; CS 350 μM, listed as CS) was 39.0% and 41.6%. For the same compound, the “ICA (10^6 cells * days/mL)” value ([2]; CS 350 μM, listed as CS) was 46.6 10^6 cells * days/mL and 45.5 10^6 cells * days/mL, the “Specific Productivity (pg/cell/day)” value ([2]; CS 350 μM, listed as CS) was 6.75 pg/cell/day and 7.00 pg/cell/day and the “TRU-016 Produced” value ([2]; CS 350 μM, listed as CS) was 314.7 µg/mL and 318.1 µg/mL. The “ICA (10^6 cells * days/mL)” value ([2]; CS 400 μM) was 47.9 10^6 cells * days/mL, the “Specific Productivity (pg/cell/day)” value ([2]; CS 400 μM) was 6.49 pg/cell/day and the “TRU-016 Produced” value ([2]; CS 400 μM) was 311.0 µg/mL. For the same compound, the “TRU-016 Produced as a % of Control” value ([2]; CS 400 μM) was 72.7%, the “Viability at Harvest (%)” value ([2]; CS 400 μM) was 50.4% and the “suppression of TRU-016 production relative to non-treated control bioreactors” value ([2]; CS 300-400 μM) was 24.9-32%. For the same compound, the “cell growth and viability in the bioreactors” value ([2]; CS 300-400 μM vs no CS) was “quite comparable”.
